Measurements as given in US20240239813A1, “KRAS INHIBITORS AND PHARMACEUTICAL USES THEREOF” (RISEN (SUZHOU) PHARMA TECH CO., LTD., priority 2022, published 2024).

Key:
[1] = biological target: His-tagged Human KRAS^G12D (Homo sapiens (Human), UniProt P01116, G12D); assay: HTRF KRAS G12D GTP binding assay; details: displacement of GTP-Red tracer
Method: KRAS^G12D was used in this assay.
The ability of a test compound to bind to KRAS^G12D was measured by using an HTRF KRAS^G12D GTP Binding Kit (Cisbio, 63ADK000CB27PEG). […] 5 μL of compound solution was added to each well after serial dilution, followed by addition of 5 μL of GDP (50 nM) solution. After 30 minutes incubation at room temperature, 1×6His Eu cryptate antibody solution and GTP-Red tracer were added to the plate, then incubated for another 30 minutes. The HTRF signal was measured with a VICTOR Nivo multimode plate reader according to the manufacturer's instructions. The percent inhibition was calculated using the following formula: […]
(where the “Maximum Signal” are wells containing DMSO without inhibitor; the “Minimum Signal” are wells containing reference inhibitory component (GDP); the “Test compound signal” are wells containing test compound (inhibitor) at established concentrations).
IC50 was determined by fitting percent inhibition at each inhibitor concentration to the four-parameter nonlinear logistic equation using GraphPad Prism.

GP2D = assay: Cell proliferation assay (CellTiterGlo), GP2D; assay type: cell-based; details: Homo sapiens, 72 hours
Method: (§1) A cell proliferation assay was used to evaluate inhibition by exemplary compounds. Proliferation assays used human tissue derived cancer cell lines, for example, AsPC-1 (Cobioer, CBP60546), GP2D (Cobioer, CBP60683), NCI-H358 (Cobioer, CBP60544), NCI-H727 (Cobioer, CBP60182), MKN-1 (Cobioer, CBP60486), HCT116 (ATCC, CCL-247), and HT-29 (Cobioer, CBP60011). Signal reflecting cell proliferation was detected with the CellTiterGlo kit (Promega, G7573).
(§2) Cells were cultured in the growth phase and 3×10^3 cells per well were plated in a 96-well plate (Greiner, 655090). Cells were incubated 24 hours at 37° C. and 5% carbon dioxide in a humidity chamber. Serially diluted exemplary compounds were added to the plate which was then incubated for another 72 hours. Plates were brought to room temperature and an equal volume of CellTiterGlo reagent was added. After 10 minutes incubation at room temperature to stabilize the signal, the luminescent signal was measured on the VICTOR Nivo multimode plate reader according to the manufacturer's instructions. The signal was converted to percent inhibition using the following formula: […]
(§3) (where the “Maximum Signal” are wells containing DMSO without inhibitor; the “Minimum Signal” are signal of wells recorded at Day 0 prior to commencement of the experiment; the “Test compound signal” are wells containing inhibitor at established concentrations).
(§4) IC50 was determined by fitting percent inhibition at each inhibitor concentration to the four-parameter nonlinear logistic equation using GraphPad Prism. IC50 (nM) values of selected compounds are depicted in Table 4. “-”: means without measuring; and “ND” means not detected.

NCI-H358 = assay: Cell proliferation assay (CellTiterGlo), NCI-H358; assay type: cell-based; details: Homo sapiens, NCI-H358, 72 hours
Method: as §1, §2, §3, §4

Chain of His-tagged Human KRAS^G12D (P01116-2 other isoform, or with tags, fused parts or gaps G12D): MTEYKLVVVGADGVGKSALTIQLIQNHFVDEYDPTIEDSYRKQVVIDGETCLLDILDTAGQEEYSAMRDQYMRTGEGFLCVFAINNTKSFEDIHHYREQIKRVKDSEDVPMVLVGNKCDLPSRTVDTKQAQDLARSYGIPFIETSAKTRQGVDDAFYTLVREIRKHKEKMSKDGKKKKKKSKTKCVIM

Structure (SMILES)	IC50 [1]	IC50 (GP2D)	IC50 (NCI-H358)
CCc1c(F)ccc2cc(O)cc(-c3ncc4c(N5CCC[C@]6(CCO6)C5)nc(OCC5(CN6CCC(C(=O)O)CC6)CC5)nc4c3F)c12 [Compound 33a]	10.3 nM	421 nM	> 10000 nM
CCc1c(F)ccc2cc(O)cc(-c3ncc4c(N5CCC[C@]6(CCO6)C5)nc(OCC5(CN6CCC7(CC6)CC(N6CCCCC6)C7)CC5)nc4c3F)c12 [Compound 21a]	6.8 nM	16.3 nM	92.2 nM
CCc1c(F)ccc2cc(O)cc(-c3ncc4c(N5CCC6(CNC(=O)O6)C5)nc(OC[C@@]56CCCN5C[C@H](F)C6)nc4c3F)c12 (stereo partly shown) [Compound 43]	> 1000 nM		
CCc1c(F)ccc2cc(O)cc(-c3ncc4c(N5C6CCCC5CC6)nc(OC[C@@]56CCCN5C[C@H](F)C6)nc4c3F)c12 [Compound 17]	> 1000 nM		
CCc1c(F)ccc2cc(O)cc(-c3ncc4c(N5CCCC6(CCO6)C5)nc(OC[C@H](C)OC)nc4c3F)c12 (stereo partly shown) [Compound 11a]	> 1000 nM		
CCc1c(F)ccc2cc(O)cc(-c3ncc4c(N5CCC[C@H]5C(C)(C)O)nc(OC[C@@]56CCCN5C[C@H](F)C6)nc4c3F)c12 [Compound 45]	> 1000 nM		
CCc1c(F)ccc2cc(O)cc(-c3ncc4c(N5CC6(CCC6O)C5)nc(OC[C@@]56CCCN5C[C@H](F)C6)nc4c3F)c12 (stereo partly shown) [Compound 110]	> 1000 nM		
CCc1c(F)ccc2cc(O)cc(-c3ncc4c(N(C)CC(C)(C)O)nc(OCC5(CN(C)C)CC5)nc4c3F)c12 [Compound 32a]	481 nM		
CCc1c(F)ccc2cc(O)cc(-c3ncc4c(N5CCC[C@@]5(C)CO)nc(OC[C@@]56CCCN5C[C@H](F)C6)nc4c3F)c12 [Compound 22]	> 10000 nM		
Cc1ccc2[nH]ncc2c1-c1ccc2c(N3CCC[C@]4(CCO4)C3)nc(OCC3(CN(C)C)CC3)nc2c1F [Compound 14a]	> 1000 nM		
CCc1c(F)ccc2cc(O)cc(-c3c(Cl)cc4c(N5CCCC6(CCO6)C5)nc(OC[C@@]56CCCN5C[C@H](F)C6)nc4c3F)c12 (stereo partly shown) [Compound 92]	416 nM		
CCc1c(F)ccc2cc(O)cc(-c3ncc4c(N5CCC[C@]6(CCO6)C5)nc(OCC5(CN6CCC7(CC6)COC7)CC5)nc4c3F)c12 [Compound 18a]	4.5 nM	1.9 nM	23 nM
CCc1c(F)ccc2cc(O)cc(-c3ncc4c(N5CCC[C@]6(CCO6)C5)nc(OCC5(CC(N)=O)CC5)nc4c3F)c12 [Compound 31a]	518 nM		
CCc1c(F)ccc2cc(O)cc(-c3ncc4c(N5CCCCC(O)C5)nc(OCC5(CN(C)C)CC5)nc4c3F)c12 (stereo not shown) [Compound 46a]	684 nM		
CCc1c(F)ccc2cc(O)cc(-c3ncc4c(N5CCCC(OC)CC5)nc(OCC5(CN(C)C)CC5)nc4c3F)c12 (stereo not shown) [Compound 40a]	424 nM		
CCc1c(F)ccc2cc(O)cc(-c3ncc4c(N5CCC(C)(CO)C5)nc(OC[C@@]56CCCN5C[C@H](F)C6)nc4c3F)c12 (stereo partly shown) [Compound 56]	> 1000 nM		
CCc1c(F)ccc2cc(O)cc(-c3ncc4c(N5C[C@H](N)C[C@H]5CO)nc(OC[C@@]56CCCN5C[C@H](F)C6)nc4c3F)c12 [Compound 55]	> 1000 nM		
CCc1c(F)ccc2cc(O)cc(-c3ncc4c(N5CCC6(COC6)C5)nc(OC[C@@]56CCCN5C[C@H](F)C6)nc4c3F)c12 [Compound 61]	> 1000 nM		
CCc1c(F)ccc2cc(O)cc(-c3ncc4c(N5CCC[C@]6(CCO6)C5)nc(OCC5(CN6CCC7(CC6)CC(N6CCOCC6)C7)CC5)nc4c3F)c12 [Compound 20a]	4.7 nM	4.7 nM	125 nM
CCc1c(F)ccc2cc(O)cc(-c3ncc4c(N5CCC[C@]6(CCO6)C5)nc(OCC5(CN6CCC7(CCC7)CC6)CC5)nc4c3F)c12 [Compound 23a]	31.2 nM		
CCc1c(F)ccc2cc(O)cc(-c3ncc4c(N5CCC[C@]6(CCO6)C5)nc(OCC5(CN6CCC(F)(F)CC6)CC5)nc4c3F)c12 [Compound 30a]	41.6 nM		
CCc1c(F)ccc2cc(O)cc(-c3ncc4c(N5CC(F)(F)C[C@H]5CO)nc(OC[C@@]56CCCN5C[C@H](F)C6)nc4c3F)c12 [Compound 21]	> 10000 nM		
CCc1c(F)ccc2cc(O)cc(-c3ncc4c(N5CC6(CC(O)C6)C5)nc(OC[C@@]56CCCN5C[C@H](F)C6)nc4c3F)c12 [Compound 36]	> 1000 nM		
CCc1c(F)ccc2cc(O)cc(-c3ncc4c(N5C[C@@H](N)C[C@H]5CO)nc(OC[C@@]56CCCN5C[C@H](F)C6)nc4c3F)c12 [Compound 33]	> 1000 nM		

Structure (SMILES)	IC50 [1]	IC50 (GP2D)	IC50 (NCI-H358)
CCc1c(F)ccc2cc(O)cc(-c3ncc4c(N5CC6(CC(=O)C6)C5)nc(OC[C@@]56CCCN5C[C@H](F)C6)nc4c3F)c12 [Compound 44]	> 1000 nM		
CCc1c(F)ccc2cc(O)cc(-c3ncc4c(N5CCCC(c6ccccc6)C5)nc(OC[C@@]56CCCN5C[C@H](F)C6)nc4c3F)c12 (stereo partly shown) [Compound 20]	> 10000 nM		
CCc1c(F)ccc2cc(O)cc(-c3ncc4c(N5CCN[C@H](C)C5)nc(OC[C@@]56CCCN5C[C@H](F)C6)nc4c3F)c12 [Compound 34]	> 1000 nM		
CCc1c(F)ccc2cc(O)cc(-c3ncc4c(N5CCC(C(C)=O)CC5)nc(OC[C@@]56CCCN5C[C@H](F)C6)nc4c3F)c12 [Compound 49]	> 1000 nM		
CCc1c(F)ccc2cc(O)cc(-c3ncc4c(N5CCC[C@H]5C(=O)O)nc(OC[C@@]56CCCN5C[C@H](F)C6)nc4c3F)c12 [Compound 8]	> 1000 nM		
CN(C)CC1(COc2nc(N3CCC[C@]4(CCO4)C3)c3cc(Cl)c(-c4ccc(F)c5sc(N)c(C#N)c45)c(F)c3n2)CC1 [Compound 39a]	> 1000 nM		
CCc1c(F)ccc2cc(O)cc(-c3ncc4c(N5CCC6(CCOC6)C5)nc(OC[C@@]56CCCN5C[C@H](F)C6)nc4c3F)c12 (stereo partly shown) [Compound 1a]	752 nM		
CCc1c(F)ccc2cc(O)cc(-c3ncc4c(N5CCC6(CCCC6=O)CC5)nc(OC[C@@]56CCCN5C[C@H](F)C6)nc4c3F)c12 [Compound 58]	> 1000 nM		
N#Cc1c(N)sc2c(F)ccc(-c3c(Cl)cc4c(N5CCC[C@]6(CCO6)C5)nc(OCC5(CN6CCCCC6)CC5)nc4c3F)c12 [Compound 48a]	> 1000 nM		
CCc1c(F)ccc2cc(O)cc(-c3ncc4c(N5CC[C@H](CO)C5)nc(OC[C@@]56CCCN5C[C@H](F)C6)nc4c3F)c12 [Compound 48]	> 1000 nM		
CCc1c(F)ccc2cc(O)cc(-c3ncc4c(N5CCCC6(C5)OCCO6)nc(OC[C@@]56CCCN5C[C@H](F)C6)nc4c3F)c12 [Compound 117]	373 nM		
CCc1c(F)ccc2cc(O)cc(-c3ncc4c(N5[C@H](CO)C[C@H]6C[C@H]65)nc(OC[C@@]56CCCN5C[C@H](F)C6)nc4c3F)c12 [Compound 57]	510 nM		
CCc1c(F)ccc2cc(O)cc(-c3ncc4c(N5CCC6(CCO6)CC5)nc(OC[C@@]56CCCN5C[C@H](F)C6)nc4c3F)c12 [Compound 60]	> 1000 nM		
CCc1c(F)ccc2cc(O)cc(-c3ncc4c(N5CC[C@@H](CO)C5)nc(OC[C@@]56CCCN5C[C@H](F)C6)nc4c3F)c12 [Compound 32]	> 1000 nM		
CCc1c(F)ccc2cc(O)cc(-c3ncc4c(N5C[C@H]6C[C@@H]5C(=O)N6)nc(OC[C@@]56CCCN5C[C@H](F)C6)nc4c3F)c12 [Compound 46]	> 1000 nM		
CN(C)CC1(COc2nc(N3CCC[C@]4(CCO4)C3)c3cnc(-c4ccc(F)c5sc(N)c(C#N)c45)c(F)c3n2)CC1 [Compound 35a]	> 1000 nM		
CCc1c(F)ccc2cc(O)cc(-c3ncc4c(N5CCC[C@]6(CCO6)C5)nc(OCC5(CN6CCC(F)C6)CC5)nc4c3F)c12 (stereo partly shown) [Compound 41a]	14.2 nM		
CCc1c(F)ccc2cc(O)cc(-c3ncc4c(N5CCC[C@@H](OC)C5)nc(OC[C@@]56CCCN5C[C@H](F)C6)nc4c3F)c12 [Compound 5a]	652 nM		
CCc1c(F)ccc2cc(O)cc(-c3ncc4c(N5CCCC(C#N)CC5)nc(OCC5(CN(C)C)CC5)nc4c3F)c12 (stereo not shown) [Compound 42a]	> 1000 nM		
CCc1c(F)ccc2cc(O)cc(-c3ncc4c(N5CCC6(CCCCC6)C5)nc(OC[C@@]56CCCN5C[C@H](F)C6)nc4c3F)c12 [Compound 40]	> 1000 nM		
CCc1c(F)ccc2cc(O)cc(-c3ncc4c(N5C6CCC5COC6)nc(OC[C@@]56CCCN5C[C@H](F)C6)nc4c3F)c12 [Compound 12]	> 1000 nM		
CCc1c(F)ccc2cc(O)cc(-c3ncc4c(N5CC6CC(C6)C5)nc(OCC5(CN(C)C)CC5)nc4c3F)c12 [Compound 38a]	> 1000 nM		
CCc1c(F)ccc2cc(O)cc(-c3ncc4c(N5CC6CCC(C5)O6)nc(OC[C@@]56CCCN5C[C@H](F)C6)nc4c3F)c12 [Compound 13]	979 nM		
